One compound from article PMC12691695, “Functional insight into cyclin-dependent kinase (CDK)7 via chemical inhibition of the priority fungal pathogen Cryptococcus neoformans” (mBio, 2025) can be followed below.

The target of the experiment is T1, CnCDK7; pulled-down CAK complex (CnCAK: CDK7-CycH-Mat1) (Cryptococcus neoformans, UniProt J9W126).
T1 construct: gene CNAG_06445; native trimeric CAK complex pulled down on mNeonGreen-Trap beads from C. neoformans; CDK7 tagged with mNeonGreen, CycH with V5, Mat1 with 6xHis; with Cyclin H
T1 sequence (J9W126 1-358): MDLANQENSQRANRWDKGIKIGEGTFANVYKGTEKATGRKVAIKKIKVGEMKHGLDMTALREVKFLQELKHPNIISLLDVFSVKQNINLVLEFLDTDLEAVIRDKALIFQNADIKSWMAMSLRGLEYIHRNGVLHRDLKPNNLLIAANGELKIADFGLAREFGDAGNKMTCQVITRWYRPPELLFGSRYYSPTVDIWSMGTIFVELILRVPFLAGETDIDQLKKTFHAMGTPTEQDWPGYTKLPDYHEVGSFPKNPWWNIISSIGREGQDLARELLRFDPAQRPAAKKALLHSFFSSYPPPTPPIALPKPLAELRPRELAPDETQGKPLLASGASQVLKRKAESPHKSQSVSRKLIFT
T1 sequence (J9VUP1 1-447 partner): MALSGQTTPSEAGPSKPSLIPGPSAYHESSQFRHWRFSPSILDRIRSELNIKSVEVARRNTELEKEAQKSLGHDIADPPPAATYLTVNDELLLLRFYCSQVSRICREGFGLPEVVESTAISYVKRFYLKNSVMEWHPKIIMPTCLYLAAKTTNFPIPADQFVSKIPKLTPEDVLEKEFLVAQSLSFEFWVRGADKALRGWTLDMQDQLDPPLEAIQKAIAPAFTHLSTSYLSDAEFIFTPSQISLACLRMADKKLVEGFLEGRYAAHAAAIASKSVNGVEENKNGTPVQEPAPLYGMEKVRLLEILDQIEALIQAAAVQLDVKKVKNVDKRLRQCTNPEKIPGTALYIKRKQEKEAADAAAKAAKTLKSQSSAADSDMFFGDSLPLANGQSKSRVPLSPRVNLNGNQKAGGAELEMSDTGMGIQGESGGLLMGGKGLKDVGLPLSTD
T1 sequence (J9VS06 1-372 partner): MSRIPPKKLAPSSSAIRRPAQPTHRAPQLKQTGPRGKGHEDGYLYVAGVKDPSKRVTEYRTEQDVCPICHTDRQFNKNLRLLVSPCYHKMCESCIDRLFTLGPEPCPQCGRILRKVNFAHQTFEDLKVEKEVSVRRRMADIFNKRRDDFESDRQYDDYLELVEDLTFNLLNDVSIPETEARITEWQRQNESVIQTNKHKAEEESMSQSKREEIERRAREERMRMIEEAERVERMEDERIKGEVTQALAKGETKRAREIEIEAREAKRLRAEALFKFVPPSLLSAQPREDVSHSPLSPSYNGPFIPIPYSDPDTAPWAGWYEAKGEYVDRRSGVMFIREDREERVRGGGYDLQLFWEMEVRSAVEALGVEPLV
As to the kind of experiment: Kinase-Glo ATP consumption, pulled-down CAK, […] min. In kind it is biochemical. Conditions: co-substrate 250 µM CDK7/9tide; 20 mM MgCl2, pH 7.5, room temperature; bead-bound complex.

`Nc1ncnc2c1ncn2[C@@H]1O[C@H](COP(=O)(O)OP(=O)(O)OP(=O)(O)O)[C@@H](O)[C@H]1O` [ATP]: the “Kinase-Glo ATP consumption, pulled-down CAK, 300 min” value is on record as “ATP consumption (due to the phosphorylation of the peptide substrate by CDK7)”.
